For assay [1], the system named is human coronavirus OC43 (HCoV-OC43). In words: Anti-virus activity, HCoV-OC43 plaque formation in RD cells.
The target in a further assay is Mpro (Severe acute respiratory syndrome coronavirus 2, UniProt P0DTD1). In words: Mpro degradation in HEK293 cells stably expressing wild-type Mpro (tetracycline-inducible), Western Blot with anti-T7 antibodies. The format is cell-based, SARS-CoV-2. The note with it: for remaining activity at 0.5 µM: HEK293, 24 h, read-out: Mpro (relative concentration). From the text:
To evaluate the degradation activity of MP-C-4N (initially, and additional PROTAC compounds later), a Mpro expression system was constructed in mammalian cells. A cell line stably expressing wild-type Mpro was constructed. According to the RNA sequence of wild-type Mpro, the corresponding DNA sequence was synthesized and codon-optimzied to be suitable for expression in HEK293 cells. After investigating the influence of different expression vectors and promoters on the protein expression level, pCW57.1-TetOn was selected as the expression vector, which contains a tetracycline-inducible promoter, and the target protein expression can be started or closed by controlling the content of tetracycline. With this cell line, the process of expressing MPro during virus infection in human cells was successfully simulated. This model was used to successfully test the degradation ability of candidate compounds on the target protein. Specifically, the cells were treated with doxycycline (1 μg/mL) for 12 h. After removing doxycycline, the cells were treated with PROTACs with indicated concentrations for 24 h and then harvested. The expression of Mpro was determined by Western Blot (WB) analysis using anti-T7 antibodies.

Setting [2] is: Betacoronavirus 1, OC43, RD, RD cells infected with HCoV-OC43, 33° C., 4-5 days, plaque areas, Tables 7-11.
Setting [3] is: compound at 500 nM, control 100%, Tables 1-3.

Structures are written as SMILES. Like-named read-outs stand apart in the source and are kept apart here.

In assay [1] (Betacoronavirus 1, OC43, RD), `O=C(CCOCCOCCOCCOCCOCCNc1cccc2c1C(=O)N(C1CCC(=O)NC1=O)C2=O)NCCn1cc(NC(=O)c2c(Cl)cccc2Cl)c(C(=O)NC2CCNCC2)n1` (centres unmarked) [MP-32] had an EC50 of 830 nM. Further, the remaining activity at 0.5 µM on Mpro worked out at 80%.

As to `CC(C)C[C@H](NC(=O)[C@@H](NC(=O)[C@H](C)NC(=O)CCOCCOCCNc1cccc2c1C(=O)N(C1CCC(=O)NC1=O)C2=O)C(C)C)C(=O)N[C@H](C#N)C[C@@H]1CCNC1=O` (some centres unmarked) [MP-39], the EC50 in assay [1] (setting [2]) was 235 nM. Also, the remaining activity at 0.5 µM on Mpro (setting [3]) stood at 40%.

Take `CC(C)C[C@H](NC(=O)[C@@H](NC(=O)[C@H](C)NC(=O)CCOCCNc1cccc2c1C(=O)N(C1CCC(=O)NC1=O)C2=O)C(C)C)C(=O)N[C@H](C#N)C[C@@H]1CCNC1=O` (some centres unmarked) [MP-38]: the EC50 in assay [1] (setting [2]) worked out at 380 nM. Moreover, the remaining activity at 0.5 µM at Mpro (setting [3]) came to 50%.

Take `Cc1ccc(NC(=O)c2ccc(CN3CCN(C(=O)CCOCCNc4cccc5c4C(=O)N(C4CCC(=O)NC4=O)C5=O)CC3)cc2)cc1Nc1nc(-c2cccnc2)cs1` (centres unmarked) [MP-18, 4-((4-(3-(2-((2-(2,6-dioxopiperidin-3-yl)-1,3-dioxoisoindolin-4-yl)amino)ethoxy)propanoyl)piperazin-1-yl)methyl)-N-(4-methyl-3-((4-(pyridin-3-yl)thiazol-2-yl)amino)phenyl)benzamide]: the EC50 in assay [1] (Betacoronavirus 1, OC43, RD) was 336 nM. In addition, at Mpro, the remaining activity at 0.5 µM was 45%.

Turning to `CC(C)C[C@H](NC(=O)[C@@H](NC(=O)[C@H](C)NC(=O)CCOCCOCCOCCNc1cccc2c1C(=O)N(C1CCC(=O)NC1=O)C2=O)C(C)C)C(=O)N[C@H](C#N)C[C@@H]1CCNC1=O` (some centres unmarked) [MP-41], it took 325 nM to reach a half-maximal effect in assay [1] (setting [2]) (EC50). In addition, the remaining activity at 0.5 µM at Mpro (setting [3]) worked out at 45%.

In assay [1] (RD cells infected with HCoV-OC43, 33° C., 4-5 days, plaque areas, Tables 7-11), `CC(C)C[C@H](NC(=O)[C@@H](NC(=O)[C@H](C)NC(=O)CCOCCOCCNc1cccc2c1C(=O)N(C1CCC(=O)NC1=O)C2=O)C(C)C)C(=O)N[C@H](C#N)C[C@@H]1CCNC1=O` (some centres unmarked) [MP-40] yielded an EC50 of 225 nM. In addition, the “Mpro (relative concentration)” value on Mpro (setting [3]) is given as 25%.

`Cc1ccc(NC(=O)c2ccc(CN3CCN(C(=O)CCOCCOCCOCCOCCOCCNc4cccc5c4C(=O)N(C4CCC(=O)NC4=O)C5=O)CC3)cc2)cc1Nc1nc(-c2cccnc2)cs1` (centres unmarked) [MP-22] had an EC50 in assay [1] (Betacoronavirus 1, OC43, RD) of 615 nM. Besides, at Mpro, the remaining activity at 0.5 µM was determined as 75%.

In assay [1] (Betacoronavirus 1, OC43, RD), `O=C(CCOCCNc1cccc2c1C(=O)N(C1CCC(=O)NC1=O)C2=O)NCCn1cc(NC(=O)c2c(Cl)cccc2Cl)c(C(=O)NC2CCNCC2)n1` (centres unmarked) [MP-28, 4-(2,6-dichlorobenzamido)-1-(2-(3-(2-((2-(2,6-dioxopiperidin-3-yl)-1,3-dioxoisoindolin-4-yl)amino)ethoxy)propanamido)ethyl)-N-(piperidin-4-yl)-1H-pyrazole-3-carboxamide] yielded an EC50 of 315 nM. In addition, the remaining activity at 0.5 µM on Mpro is 33%.

With `Cc1ccc(NC(=O)c2ccc(CN3CCN(C(=O)CCOCCOCCOCCOCCNc4cccc5c4C(=O)N(C4CCC(=O)NC4=O)C5=O)CC3)cc2)cc1Nc1nc(-c2cccnc2)cs1` (centres unmarked) [MP-21], the EC50 in assay [1] (Betacoronavirus 1, OC43, RD) amounted to 480 nM. The remaining activity at 0.5 µM at Mpro was 52%.

Consider `Cc1ccc(NC(=O)c2ccc(CN3CCN(C(=O)CCOCCOCCOCCNc4cccc5c4C(=O)N(C4CCC(=O)NC4=O)C5=O)CC3)cc2)cc1Nc1nc(-c2cccnc2)cs1` (centres unmarked) [MP-20], for which, in assay [1] (Betacoronavirus 1, OC43, RD), a half-maximal effect (EC50) was put at 310 nM. Also, the remaining activity at 0.5 µM at Mpro was 28%.

As to `O=C(CCOCCOCCOCCOCCNc1cccc2c1C(=O)N(C1CCC(=O)NC1=O)C2=O)NCCn1cc(NC(=O)c2c(Cl)cccc2Cl)c(C(=O)NC2CCNCC2)n1` (centres unmarked) [MP-31], the EC50 in assay [1] (Betacoronavirus 1, OC43, RD) is 520 nM. Also, the remaining activity at 0.5 µM on Mpro was 65%.

Consider `CC(C)C[C@H](NC(=O)[C@@H](NC(=O)[C@H](C)NC(=O)CCOCCOCCOCCOCCNc1cccc2c1C(=O)N(C1CCC(=O)NC1=O)C2=O)C(C)C)C(=O)N[C@H](C#N)C[C@@H]1CCNC1=O` (some centres unmarked) [MP-42], for which it took 410 nM to reach a half-maximal effect in assay [1] (setting [2]) (EC50). On Mpro (setting [3]), the remaining activity at 0.5 µM stood at 70%.

With `O=C(CCOCCOCCOCCNc1cccc2c1C(=O)N(C1CCC(=O)NC1=O)C2=O)NCCn1cc(NC(=O)c2c(Cl)cccc2Cl)c(C(=O)NC2CCNCC2)n1` (centres unmarked) [MP-30], in assay [1] (Betacoronavirus 1, OC43, RD), the EC50 was found to be 435 nM. At Mpro, the remaining activity at 0.5 µM came out at 52%.

Compound `O=C(CCOCCOCCNc1cccc2c1C(=O)N(C1CCC(=O)NC1=O)C2=O)NCCn1cc(NC(=O)c2c(Cl)cccc2Cl)c(C(=O)NC2CCNCC2)n1` (centres unmarked) [MP-29] registered an EC50 in assay [1] (Betacoronavirus 1, OC43, RD) of 380 nM. The remaining activity at 0.5 µM on Mpro came out at 40%.

In the case of `CC(C)C1CCN(C(=O)[C@@H](NC(=O)[C@H](C)NC(=O)CCOCCOCCOCCNc2cccc3c2C(=O)N(C2CCC(=O)NC2=O)C3=O)C(C)(C)C)C1C(=O)N[C@H](C#N)CC1CCNC1=O` (some centres unmarked) [MP-C-4N], at Mpro (WB, cells treated 24 h, FIG. 55), the “concentration at which degradation of Mpro was detected” value lay in the range of 0.5 to 1.0 µM. On Mpro (WB, FIG. 55), the “concentration dependence of Mpro degradation activity” value is reported as “concentration-dependent”.

`Cc1ccc(NC(=O)c2ccc(CN3CCN(C(=O)CCOCCOCCNc4cccc5c4C(=O)N(C4CCC(=O)NC4=O)C5=O)CC3)cc2)cc1Nc1nc(-c2cccnc2)cs1` (centres unmarked) [MP-19] yielded a concentration giving a half-maximal response (EC50) in assay [1] (Betacoronavirus 1, OC43, RD) of 318 nM. Also, the remaining activity at 0.5 µM on Mpro came to 32%.

The values above are taken from patent publication US20260166160A1, “PROTACS TARGETING VIRAL ENZYMES FOR PRECISE TREATMENT OF COVID-19” (Ohio University, priority 2022, published 2026).
